The nature of data set [1]: Crystal size distribution of flufenamic acid crystals by particle analyzer probe (FBRM). Format: physicochemical. Particulars: FIG. 10. On the procedure:
An undersaturated solution of flufenamic acid (a non-steroidal anti-inflammatory drug) was prepared with 8.7 grams of the active pharmaceutical drug and 700 ml of ethanol (the solvent) in a 1000 ml volumetric flask. The solution was stirred at room temperature (i.e., 25° C.) until complete dissolution.
Flufenamic acid solution and water (the antisolvent) were added to the reactor at constant flow rates using peristaltic pumps. The flow rate of antisolvent added to reactor was chosen in order to maintain a solution/antisolvent ratio of 1:2 vol/vol (ml/ml) in all experiments.
The effects regarding number of addition points of antisolvent on particle size distribution were studied and are summarized in Table 3. In sum, four experiments were conducted. For each experiment, the total antisolvent flow rate was 200 ml/min. In Experiment 1, there was one antisolvent addition point with 200 ml/min of […] added therein. In Experiment 2, there were two antisolvent addition points with 100 ml/min of antisolvent added to the first and second reactor modules, respectively. In Experiment 3, there were three antisolvent addition points with 67 ml/min of antisolvent added to the first, second and third reactor modules, respectively. In Experiment 4, there were four antisolvent addition points with 50 ml/min of antisolvent added to the first, second, third and fourth reactor modules, respectively.
The Raman spectra of the product crystals was collected to ascertain polymorphic form. The CSD of the solid product was also characterized using a particle analyzer probe (e.g., a Lasentec brand probe). The dried crystals were slurried in water and 0.5% of sodium dodecyl sulfate (SDS) surfactant was added to disperse the particles. A magnetic stirrer was used to keep the particles suspended during particle analysis measurements.

A short description of data set [2]: Crystal size distribution of ketoconazole crystals by laser diffraction (continuous plug flow antisolvent crystallization). It is filed as physicochemical. On the procedure:
A saturated solution of ketoconazole (an anti-fungal drug) was prepared with about 39 grams of the pharmaceutical compound and about 470 ml of methanol as the solvent in a 1000 ml volumetric flask. The solution was maintained at about 35° C. (10° C. above the saturation temperature) for about 2 hours under gentle agitation to ensure complete dissolution of the solids.
The ketoconazole feed solution (ketoconazole and methanol) and the antisolvent (water) were added to the reactor 403 at a constant flow rate using peristaltic pumps 405. The total amount of antisolvent added to the reactor 403 was enough to maintain a solution/antisolvent ratio of about 70:30 vol/vol (ml/ml) in all of the experiments.
The effect of residence time in the reactor (the term residence time is used to denote the total cumulative residence time in all of the reactor modules combined) and number of stages (that is, the number of reactor modules) on crystal size distribution was studied. […]
The effects of residence time and number of stages on the CSD were analyzed. […] Further, the diluted ketoconazole solid in methanol was measured with a UV spectrophotometer (e.g., a GENESYS 20 UV spectrophotometer) in order to determine the concentration of the ketoconazole. […]
The CSD of ketoconazole was measured at different residence times and number of stages as illustrated in Table 1 using laser diffraction. […]

The conditions of data set [3]: water/methanol 80:20, one stage.
Procedure: The solution was maintained at about 35° C., which is 10° C. above the saturation temperature, for at least 2 hours under gentle agitation for complete dissolution of solids. The solution was cooled down and maintained at room temperature (i.e., 25° C.) overnight (approximately 8 hours).
The concentration of antisolvent introduced to the reactor 403 was suitable to maintain a solution/antisolvent ratio of about 80:20 vol/vol (ml/ml) in all of the experiments.
Three experiments were conducted with one point of antisolvent addition (one stage or one reactor module). The residence time for experiments 1, 2 and 3 were 0.5 to 2 min, respectively.
The process was performed under vacuum. The solid phase was dried overnight (approximately 8 hours) at about 65° C. Raman spectra of the product crystals were collected to ascertain the polymorphic form.

SMILES strings stand for the structures. Where two headings read alike, the source gives them in different places.

`O=C(O)c1ccccc1Nc1cccc(C(F)(F)F)c1` [flufenamic acid]: the mean crystal size in data set [1] (first addition point of antisolvent, ethanol/water 1:2) is given as 65-70 μm; in data set [1] (printed as third addition point (second mention)), “approximately 110 μm”; in data set [1] (second addition point of antisolvent) it was “approximately 80 μm”; in data set [1] (third addition point of antisolvent), “approximately 95 μm”.
In the case of `CC(=O)N1CCN(c2ccc(OCC3COC(Cn4ccnc4)(c4ccc(Cl)cc4Cl)O3)cc2)CC1` (centres unmarked) [ketoconazole], the mean crystal size entry in data set [2] (FIG. 5, first stage of antisolvent addition, residence time about 40 min, methanol/water 70:30) is reported as “about 2.5 μm”; in data set [2] (FIG. 7, two points of antisolvent addition) it was “about 3.0 μm”.
Regarding `NCC(=O)O` [glycine], the results for the “polymorphic form of product crystals” value in data set [3] (as the residence time increased) and in data set [3] (low residence time) were “β-glycine crystals” and “α-glycine crystals”, respectively.
